Reference: EP1153612A1, “ANTICANCER AGENT POTENTIATORS” (Tsuruo, Takashi, priority 1999, dated 2000)
Where a SMILES comes first, the peptide text is derived from it. [ ]: non-standard residue; d: D form. The star is where a group is joined. Nva = CCC[C@H](N)C(=O)O; Cbz = O=C(OCc1ccccc1)*; OtBu = CC(C)(C)O*

Key:
topoisomerase IIα = experiment: Amount of expression of topoisomerase IIα in whole cell extract by western blotting; assay type: cell-based, human
Source text: Topoisomerase II inhibiting anticancer drug stabilizes a complex (cleavable complex) consisting of the DNA and topoisomerase IIα occurring in a catalytic reaction process of topoisomerase IIα to cause DNA damage. Therefore, cell-killing effect of the topoisomerase II-inhibiting anticancer drug depends on the amount of intracellular expression of topoisomerase IIα essential for formation of the cleavable complex. Then, the amount of expression of topoisomerase IIα in the cultured cancer cell under the glucose starvation and hypoxia environment that are found in the solid cancer and the effect of the proteasome inhibiting agent to the amount of expression were examined.
The culture condition of cells is same as that described in Example 1 including the M phase synchronous culture method and culture under the glucose starvation condition. Culture under hypoxia condition, that is found in the solid cancer, similar to glucose starvation was carried out using the culture medium (that prepared by adding 5% FBS to RPMI1640 culture medium) under the ordinary condition in a Gaspack 100 anaerobic system (Becton Dickinson made). Culture under the glucose starvation condition and hypoxia condition was carried out for 14 hours .
With the purpose to prepare a whole cell extract solution, cells culture under the above described condition were washed with an ice-cooled PBS twice and then, cells were removed from the culture dish by using a cell scraper (Sumitomo Bakelite made) for collection. Cells collected were precipitated by centrifugation and then, dissolved in an SDS sample buffer to collect as the extract solution from all cells. For reference, the composition of the SDS sample buffer was 10% v/v, glycerol, 5% 2-mercaptoethanol, 2% SDS (sodium lauryl sulfate), and 62.5 mM tris-hydrochloric acid (pH 6.8).
The amount of topoisomerase IIα in the extract solution from all cells was measured by the western blotting method. The extract solution from all cells containing a total protein quantity of 30 µg was put on an SDS polyacrylamide gel (4-20 Multigel: Daiichi Pure Chemicals K.K. made) and subjected to electrophoresis in an electrophoresis buffer (25 mM tris, 192 mM glycine, and 0.1% SDS) in a 40 mA constant current for 1 hour. Subsequently, blotting was carried out in 4°C blotting buffer (25 mM tris, 192 mM glycine, and 20% methanol) in a 50 V constant voltage for 12 hours to transfer a protein separated in the SDS polyacrylamide gel to a nitrocellulose membrane. This nitrocellulose membrane was soaked in a blocking buffer (0.1% Tween 20, 4% skim milk-added PBS) for 1 hour to carry out blocking. The nitrocellulose membrane blocked was soaked in a solution, that was prepared by adding anti-topoisomerase IIα antibody (Cambridge Research Biochemicals Corp. made) of the final concentration 1 µg/ml as the primary antibody to the blocking buffer solution, for 1 hour. The nitrocellulose membrane was washed with the blocking buffer three times (5 minutes once), and then, soaked in the solution, in which a 1/1000 volume of an antimouse antibody (Amersham Pharmacia Biotech made) labeled with horse radish peroxidase as a secondary antibody had been added to the blocking buffer, for 1 hour. The nitrocellulose membrane was washed with the blocking buffer three times (5 minutes once), and then, washed with the PBS, to which 0.1% Tween 20 was added, three times (5 minutes once). The nitrocellulose membrane after completion of antibody reaction and washing was treated with the ECL reagent (Amersham Pharmacia Biotech made) after a handling manual and a topoisomerase IIα-specific signal was detected on an X-OMAT™AR film (Kodakmade). For reference, steps after blotting was carried out in a room temperature. […]
The cell culture condition for both M phase-synchronized culture method and culture under the glucose starvation condition was as described in Example 1. […]

[1] = system: human colon adenocarcinoma cell HT-29; experiment: Sensitivity of cells to anticancer drug by colony formation method (M phase-synchronized cells, with or without proteasome inhibiting agent); assay type: cell-based; settings: for effect of each inhibiting agent on etoposide sensitivity: etoposide 10 µg/ml, MG132, MG115 2.5 µM, E64, ZLLal 25 µM, FIG. 2; for change of cell-killing effect of camptothecin: PSI, MG132 2.5 µM 13 hours, camptothecin 4 hours, FIGS. 15 and 16
Procedure: In the glucose starvation environment found in the solid cancer, the effect of combined use of the proteasome inhibitor in a human colon adenocarcinoma cell HT-29 with the anticancer drug targeting topoisomerase II was tested.
Concerning culture media, for a culture condition in a normal state, RPMI 1640 medium (Nissui Pharmaceutical Co.-made) to which a 5% FBS (fetal bovine serum) was added and for the culture condition in the glucose starvation state symbolically found in the solid cancer, RPMI 1640 medium (Lifetech Oriental-made), lacking glucose, in which the 5% FBS was added were used, respectively. Culture was carried out using a CO2 incubator (Tabai Espec-made) under conditions of 5% CO2/95% air and humidity 100%.
In order to test sensitivity to the anticancer drug, the cell cycle synchronization culture methodwas employed. Nocodazol (Sigma made) was used to synchronize the cell cycle, cells in a logarithmic proliferation phase were treated with 40 ng/ml Nocodazol for 9 hours, and cells accumulated in cell division phase (Mpahse) were collected by gentle pipetting. M phase-synchronized cells collected through these steps were washed with PBS (phosphate buffered saline) followed by inoculation of 1×10^5 cells per well of 12 well-culture plate.
M phase-synchronized cells were cultured under the normal condition and the glucose starvation condition to conduct treatments with the proteasome inhibiting agent and the anticancer drug as follows. For cells under the glucose starvation condition, the culture medium, to which the proteasome inhibiting agent and the protease inhibiting agent not inhibiting proteasome were added as the control group, and the culture medium, to which no inhibiting agent has been added, was used. For cells under the normal condition, the culture medium, to which each inhibiting agent was not added, was used. After inoculation of cells, culture was carried out for 13 hours in each culture medium. […]
Sensitivity of cells to the anticancer drug was measured using the colony formation method. As described above, cells treated with the proteasome inhibiting agent and the anticancer drug were washed with PBS followed by soaking in trypsin (Lifetech Oriental made) solution and removed from a culture dish to suspend in an ordinary culture medium. These cells were inoculated again in 500 to 5000 cells for a 10 cm culture dish and cultured for 10 to 12 days to form a colony. The colony formed was fixed by 10% formaldehyde solution and stainedwith 0.01% crystal violet (Wako Pure Chemicals made) solution. Number of colony was counted and a Cell survival rate was calculated assuming that the number of colonies untreated with the anticancer drug is 1.
For reference, the proteasome inhibiting agent and the protease inhibiting agent not inhibiting proteasome used as described above were as follows. • (1) Proteasome inhibiting agent • . […] MG115 (carbobenzoxy-L-Leucyl-L-Leucyl-L-Norvalinal): final concentration 2.5 µM (Peptide Institute Inc. made) • . MG132 (carbobenzoxy-L-Leucyl-L-Leucyl-Leucinal) : final concentration 2.5 µM (Peptide Institute Inc. made) • . Lactacystin, final concentration 10 µM (Kindly supplied from The Kitasato Institute made) • (2) Protease inhibiting agent not inhibiting proteasome • . E64, final concentration 25 µM (Peptide Institute Inc. made) • . ZLLal (carbobenzoxy-L-Leucyl-L-Leucinal): final concentration 25 µM (Peptide Institute Inc. made)
The cell culture condition for both M phase-synchronized culture method and culture under the glucose starvation condition was as described in Example 1. M phase-synchronized cells were cultured in the culture medium, to which lactacystin of the final concentration 10 µM was added, or the culture medium, to which this was not added, as the proteasome inhibiting agent under the ordinary condition and the glucose starvation condition, respectively, for 13 hours. […]

[2] = glucose starvation condition 14 hours, PSI, MG115, MG132 5 µM, lactacystin 10 µM, E64, ZLLal 50 µM, FIG. 5(a)-(c)
[3] = glucose starvation condition, final concentration of 2.5 µM, not presented as data

Row | SMILES | expressed amount of topoisomerase IIα (topoisomerase IIα; [2]) | expressed amount of topoisomerase IIα (topoisomerase IIα; [3]) | effect of each inhibiting agent on etoposide sensitivity ([1]; glucose starvation condition) | also measured
1 | CCC[C@@H](C=O)NC(=O)[C@H](CC(C)C)NC(=O)[C@H](CC(C)C)NC(=O)OCc1ccccc1 [MG115, carbobenzoxy-L-Leucyl-L-Leucyl-L-Norvalinal] (Cbz-Leu-Leu-[Nva]-aldehyde) | the expressed amount of topoisomerase IIα does not drop | inhibited similarly decrease in expression of topoisomerase IIα | enhance sensitivity of cells to etoposide | 
2 | CC(=O)NCCSC(=O)[C@]1([C@@H](O)C(C)C)NC(=O)[C@H](C)[C@@H]1O [decarboxy lactacystin] |  |  |  | amount of expression of topoisomerase IIα (topoisomerase IIα; glucose starvation condition 13 hours, decarboxy lactacystin 0.5, 1, 2.5, and 5 µM, FIG. 19 bottom): inhibits lowering of expression of topoisomerase IIα by glucose starvation; change of cell-killing effect of etoposide ([1]; decarboxy lactacystin 5 µM 13 hours, etoposide 4 hours, ordinary and glucose starvation condition, FIG. 19 top): enhances the cell-killing effect of etoposide; change of cell-killing effect of SN38 ([1]; ordinary condition, decarboxy lactacystin 5 µM 13 hours, SN38 4 hours, FIG. 20): enhances the cell-killing effect of SN38
3 | N.N.[Cl][Pt][Cl] [cisplatin] |  |  |  | sensitivity of cancer cells to cisplatin ([1]; under the stress environment (glucose starvation), cisplatin 4 hours, FIG. 18): high sensitivity
4 | CC(C)C[C@@H](C=O)NC(=O)[C@H](CC(C)C)NC(=O)[C@H](CC(C)C)NC(=O)OCc1ccccc1 [MG132, carbobenzoxy-L-Leucyl-L-Leucyl-Leucinal] (Cbz-Leu-Leu-Leu-aldehyde) | the expressed amount of topoisomerase IIα does not drop | inhibited similarly decrease in expression of topoisomerase IIα | enhance sensitivity of cells to etoposide | change of cell-killing effect of camptothecin ([1]; glucose starvation condition): also enhance the effect of camptothecin
5 | CC[C@H](C)[C@H](NC(=O)OCc1ccccc1)C(=O)N[C@@H](CCC(=O)OC(C)(C)C)C(=O)N[C@@H](C)C(=O)N[C@H](C=O)CC(C)C [PSI, carbobenzoxy-L-Isoleucyl-γ-t-Butyl-L-Glutamyl-L-Alany 1-L-Leucinal] (Cbz-IE(OtBu)AL-aldehyde) | the expressed amount of topoisomerase IIα does not drop | inhibited similarly decrease in expression of topoisomerase IIα |  | sensitivity to etoposide of cancer cells, effect of inhibiting agent ([1]; glucose starvation condition, PSI 2.5 µM, 13 hours, then etoposide 1 hour, FIG. 1): cells show sensitivity to etoposide even in the glucose starvation condition; change of cell-killing effect of camptothecin ([1]; glucose starvation condition): also enhance the effect of camptothecin
6 | CC(C)C[C@@H](C=O)NC(=O)[C@H](CC(C)C)NC(=O)OCc1ccccc1 [ZLLal, carbobenzoxy-L-Leucyl-L-Leucinal] | the expressed amount of topoisomerase IIα very dropped |  | seldom change sensitivity to etoposide | 
7 | CC(C)C[C@H](NC(=O)[C@H]1O[C@@H]1C(=O)O)C(=O)NCCCCNC(=N)N [E64] | the expressed amount of topoisomerase IIα very dropped |  | seldom change sensitivity to etoposide | 
